Test results published in PMC3222680 (PLoS ONE, 2011).

Assays:
[1] = tested on: chimera α–β or chimera β–α transfected alone; experiment: Whole cell patch-clamp, chimeras transfected alone into HEK293 cells; type: cell-based, human; conditions: glycine up to 100 mM, data not shown
Experimental: (§1) The human GlyR α1 and β subunit cDNAs were subcloned into the pcDNA3.1zeo+ (Invitrogen) or pGEMHE [44] plasmid vectors for expression in HEK293 cells or Xenopus oocytes, respectively. Site-directed mutagenesis and chimera construction were performed using the QuickChange (Stratagene, La Jolla, CA, USA) mutagenesis and multiple-template-based sequential PCR protocols, respectively.
(§2) The effects of the hyperekplexia-mimicking mutations, K24′A, V25′A and Y27′A, were examined on GlyRs expressed in HEK293 cells (ATCC). Details of the HEK293 cell culture, GlyR expression and electrophysiological recording of the HEK293 cells are described elsewhere. Briefly, HEK293 cells were maintained in DMEM supplemented with 10% fetal bovine serum. Cells were transfected using a calcium phosphate precipitation protocol. When co-transfecting the α1 together with the β or any other chimera subunits, their respective cDNAs were combined in a ratio of 1∶10. In addition, the pEGFP-N1 (Clontech) was co-transfected to facilitate identifying the transfected cells. […] Cells were treated with external Ringer's solution and internal CsCl solution [30]. Cells were voltage-clamped at −40 mV. When the heteromeric GlyRs were expressed, the picrotoxin sensitivity was tested to confirm that the majority of receptors are heteromers, [30].

αY27′A βWT GlyR = αY27′A βWT GlyR (Homo sapiens, UniProt P23415+P48167, Y307A)
αY27′A βWT GlyR, sequence (P23415 29-449 isoform P23415-2 Y307A limits assumed): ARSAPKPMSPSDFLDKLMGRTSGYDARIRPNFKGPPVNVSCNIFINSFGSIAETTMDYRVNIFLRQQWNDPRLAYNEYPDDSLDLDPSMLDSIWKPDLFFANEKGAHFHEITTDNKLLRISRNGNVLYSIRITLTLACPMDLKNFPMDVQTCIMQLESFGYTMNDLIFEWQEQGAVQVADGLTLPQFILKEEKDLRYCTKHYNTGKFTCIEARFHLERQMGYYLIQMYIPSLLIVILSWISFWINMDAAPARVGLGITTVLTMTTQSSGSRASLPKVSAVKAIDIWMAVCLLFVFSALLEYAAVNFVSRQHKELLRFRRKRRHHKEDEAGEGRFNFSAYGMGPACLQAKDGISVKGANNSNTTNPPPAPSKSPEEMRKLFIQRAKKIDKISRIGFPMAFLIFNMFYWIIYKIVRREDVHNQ
αY27′A βWT GlyR, sequence (P48167 23-497): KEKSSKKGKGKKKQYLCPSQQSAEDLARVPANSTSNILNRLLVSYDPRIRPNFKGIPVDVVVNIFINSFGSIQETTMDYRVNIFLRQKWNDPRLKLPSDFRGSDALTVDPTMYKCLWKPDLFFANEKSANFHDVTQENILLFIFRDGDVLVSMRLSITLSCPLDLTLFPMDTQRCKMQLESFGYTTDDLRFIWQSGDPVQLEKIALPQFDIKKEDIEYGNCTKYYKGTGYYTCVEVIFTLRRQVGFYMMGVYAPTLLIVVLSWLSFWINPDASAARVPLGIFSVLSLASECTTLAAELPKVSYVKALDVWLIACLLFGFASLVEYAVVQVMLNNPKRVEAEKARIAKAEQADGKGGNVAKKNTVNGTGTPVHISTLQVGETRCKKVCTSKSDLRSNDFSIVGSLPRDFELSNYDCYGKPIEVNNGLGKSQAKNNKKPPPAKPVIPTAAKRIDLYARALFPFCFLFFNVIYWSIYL
Experimental: as §1, §2
(§3) Results are expressed as mean±standard error of the mean of three or more independent experiments. […] Statistical significance was determined using the Student's t-test.

αY27′A α-βWT GlyR = αY27′A α-βWT GlyR (Homo sapiens, UniProt P23415+P48167, Y307A)
αY27′A α-βWT GlyR, sequence (P23415 29-449 isoform P23415-2 Y307A): as the sequence (P23415 29-449 isoform P23415-2 Y307A limits assumed) above
αY27′A α-βWT GlyR, sequence (P23415+P48167 fused with the stated changes): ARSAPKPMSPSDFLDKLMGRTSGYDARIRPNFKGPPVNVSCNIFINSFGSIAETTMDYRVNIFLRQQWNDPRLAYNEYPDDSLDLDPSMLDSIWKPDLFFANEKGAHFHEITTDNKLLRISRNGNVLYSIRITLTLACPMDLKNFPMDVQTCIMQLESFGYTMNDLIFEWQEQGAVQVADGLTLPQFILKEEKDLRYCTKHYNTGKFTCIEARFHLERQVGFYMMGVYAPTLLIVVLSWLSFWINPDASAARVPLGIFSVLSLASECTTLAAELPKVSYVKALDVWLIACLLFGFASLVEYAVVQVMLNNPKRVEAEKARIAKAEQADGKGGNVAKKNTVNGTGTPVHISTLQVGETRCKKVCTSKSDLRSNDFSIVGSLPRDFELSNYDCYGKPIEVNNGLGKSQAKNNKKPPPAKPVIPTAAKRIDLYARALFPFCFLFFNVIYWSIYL
Experimental: as §1, §2, §3

αWT β19′C GlyR = αWT β19′C GlyR (Homo sapiens, UniProt P23415+P48167, A317C/C137A/C313A/C69A); conditions: MTSR-labeled, oocytes
αWT β19′C GlyR, sequence (P23415 29-449 isoform P23415-2 C69A): as the sequence (P23415 29-449 isoform P23415-2 Y307A limits assumed) above, with C41A, A279Y counted along it
αWT β19′C GlyR, sequence (P48167 23-497 C137A/C313A/A317C): as the sequence (P48167 23-497) above, with C115A, C291A, A295C counted along it
Experimental: as §1
(§4) For the VCF experiments, both GlyR α1 and β subunit cDNAs in the pGEMHE vector were mutated to substitute non-essential background cysteines with alanines, including α1C41A and βC115AC291A [46], [47].
(§5) VCF experiments were performed on GlyRs expressed in Xenopus laevis oocytes. Female Xenopus laevis frogs were purchased from Xenopus Express, France. Details of oocyte preparation, GlyR expression and VCF recording are described elsewhere. Briefly, the mMessage mMachine kit (Ambion, Austin, TX) was used to generate capped mRNA. The mRNA was injected into oocytes of the female Xenopus laevis frog with 10 ng (1 ng α1 and 9 ng β or any other chimeric subunits) per oocyte. After injection, the oocytes were incubated in ND96 solution [33] for 3–4 days at 18 °C before recording.
(§6) The sulfhydryl-reactive reagent, sulforhodamine methanethiosulfonate (MTSR, Toronto Research Chemicals, North York, Ontario, Canada), was used to label 19′C residues. […] The oocytes were then transferred to the recording chamber and perfused with ND96 solution. The current was recorded by the two-electrode voltage clamp configuration and the recording electrode was filled with 3 M KCl. Cells were voltage-clamped at −40 mV. The fluorescence was recorded using the PhotoMax 200 photodiode detection system (Dagan Corp., Minneapolis, MN).
as §3

αWT α-β19′C GlyR = αWT α-β19′C GlyR (Homo sapiens, UniProt P23415+P48167, C69A); conditions: MTSR-labeled, oocytes
αWT α-β19′C GlyR, sequence (P23415 29-449 isoform P23415-2 C69A): as the sequence (P23415 29-449 isoform P23415-2 Y307A limits assumed) above, with C41A, A279Y counted along it
αWT α-β19′C GlyR, sequence (P23415+P48167 fused with the stated changes): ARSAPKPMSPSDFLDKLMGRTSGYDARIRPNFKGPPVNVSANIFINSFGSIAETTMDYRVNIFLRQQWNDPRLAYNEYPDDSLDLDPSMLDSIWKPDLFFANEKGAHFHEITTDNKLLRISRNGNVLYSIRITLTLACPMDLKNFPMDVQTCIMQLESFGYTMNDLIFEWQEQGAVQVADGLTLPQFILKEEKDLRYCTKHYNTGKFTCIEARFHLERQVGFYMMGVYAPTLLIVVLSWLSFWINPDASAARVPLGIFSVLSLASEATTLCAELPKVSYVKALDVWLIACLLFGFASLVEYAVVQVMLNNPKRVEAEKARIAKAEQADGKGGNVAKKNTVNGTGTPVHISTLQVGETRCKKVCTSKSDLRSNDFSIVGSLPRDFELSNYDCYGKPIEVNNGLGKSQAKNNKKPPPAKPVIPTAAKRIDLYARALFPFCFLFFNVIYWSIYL
Experimental: as §1, §4, §5, §6, §3

αWT αT-β19′C GlyR = αWT αT-β19′C GlyR (Homo sapiens, UniProt P23415+P48167, A317C/C137A/C313A/C69A/Q95A); conditions: MTSR-labeled, oocytes
αWT αT-β19′C GlyR, sequence (P23415 29-449 isoform P23415-2 C69A): as the sequence (P23415 29-449 isoform P23415-2 Y307A limits assumed) above, with C41A, A279Y counted along it
αWT αT-β19′C GlyR, sequence (P48167 23-497 with the stated changes): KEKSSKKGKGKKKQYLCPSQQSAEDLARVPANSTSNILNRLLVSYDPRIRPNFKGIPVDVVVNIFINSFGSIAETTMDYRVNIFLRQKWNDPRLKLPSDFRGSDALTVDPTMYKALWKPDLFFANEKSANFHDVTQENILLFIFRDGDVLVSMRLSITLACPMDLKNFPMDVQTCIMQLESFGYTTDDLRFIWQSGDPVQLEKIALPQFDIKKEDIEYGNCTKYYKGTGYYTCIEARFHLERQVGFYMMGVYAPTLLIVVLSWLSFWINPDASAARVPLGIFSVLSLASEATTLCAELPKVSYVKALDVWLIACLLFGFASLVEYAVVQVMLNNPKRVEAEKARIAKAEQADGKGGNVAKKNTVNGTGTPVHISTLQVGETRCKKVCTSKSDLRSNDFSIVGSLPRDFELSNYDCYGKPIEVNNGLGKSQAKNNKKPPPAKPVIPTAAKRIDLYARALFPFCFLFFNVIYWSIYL
Experimental: as §1, §4, §5, §6, §3

αWT αB-β19′C GlyR = αWT αB-β19′C GlyR (Homo sapiens, UniProt P23415+P48167, A80Q/C69A); conditions: MTSR-labeled, oocytes
αWT αB-β19′C GlyR, sequence (P23415 29-449 isoform P23415-2 C69A): as the sequence (P23415 29-449 isoform P23415-2 Y307A limits assumed) above, with C41A, A279Y counted along it
αWT αB-β19′C GlyR, sequence (P23415+P48167 fused with the stated changes): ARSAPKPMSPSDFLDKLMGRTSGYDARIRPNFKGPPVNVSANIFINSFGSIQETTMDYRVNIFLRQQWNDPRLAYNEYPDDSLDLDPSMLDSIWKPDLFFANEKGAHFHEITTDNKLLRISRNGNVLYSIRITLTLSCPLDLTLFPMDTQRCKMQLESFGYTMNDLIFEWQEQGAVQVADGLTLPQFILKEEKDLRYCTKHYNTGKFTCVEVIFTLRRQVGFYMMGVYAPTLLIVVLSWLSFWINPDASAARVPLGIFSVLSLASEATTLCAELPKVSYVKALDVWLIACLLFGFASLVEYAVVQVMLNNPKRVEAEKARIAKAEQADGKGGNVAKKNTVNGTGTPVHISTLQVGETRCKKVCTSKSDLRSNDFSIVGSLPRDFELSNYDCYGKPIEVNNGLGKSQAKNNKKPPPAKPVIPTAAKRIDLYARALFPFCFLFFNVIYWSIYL
Experimental: as §1, §4, §5, §6, §3

αWT β-α19′C GlyR = αWT β-α19′C GlyR (Homo sapiens, UniProt P23415+P48167, C137A/C69A/R299C); conditions: MTSR-labeled, oocytes
αWT β-α19′C GlyR, sequence (P23415 29-449 isoform P23415-2 C69A): as the sequence (P23415 29-449 isoform P23415-2 Y307A limits assumed) above, with C41A, A279Y counted along it
αWT β-α19′C GlyR, sequence (P48167+P23415 fused with the stated changes): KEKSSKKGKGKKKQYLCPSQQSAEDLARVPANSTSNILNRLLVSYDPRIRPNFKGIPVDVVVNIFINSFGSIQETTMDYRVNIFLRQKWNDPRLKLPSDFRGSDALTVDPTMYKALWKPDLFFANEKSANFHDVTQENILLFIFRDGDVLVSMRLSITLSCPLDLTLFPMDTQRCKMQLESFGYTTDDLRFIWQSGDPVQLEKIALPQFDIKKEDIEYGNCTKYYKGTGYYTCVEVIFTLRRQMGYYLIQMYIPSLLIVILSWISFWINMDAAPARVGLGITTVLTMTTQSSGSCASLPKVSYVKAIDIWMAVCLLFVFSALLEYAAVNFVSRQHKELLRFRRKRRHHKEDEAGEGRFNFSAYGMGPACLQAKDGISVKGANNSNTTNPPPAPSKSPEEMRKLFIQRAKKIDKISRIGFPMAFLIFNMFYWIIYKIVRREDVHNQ
Experimental: as §1, §4, §5, §6, §3

α19′C βWT GlyR = α19′C βWT GlyR (Homo sapiens, UniProt P23415+P48167, C137A/C313A/C69A/R299C); conditions: MTSR-labeled, oocytes
α19′C βWT GlyR, sequence (P23415 29-449 isoform P23415-2 C69A/R299C limits assumed): as the sequence (P23415 29-449 isoform P23415-2 Y307A limits assumed) above, with C41A, R271C, A279Y counted along it
α19′C βWT GlyR, sequence (P48167 23-497 C137A/C313A): as the sequence (P48167 23-497) above, with C115A, C291A counted along it
Experimental: as §1, §4, §5, §6, §3

[2] = tested on: α-β, β-α, αB-β and αT-β subunits expressed alone; conditions: chimeric subunits expressed alone in oocytes; data not shown
Experimental: as §5, §6

αY27′A β-αWT GlyR = αY27′A β-αWT GlyR (Homo sapiens, UniProt P23415+P48167, Y307A)
αY27′A β-αWT GlyR, sequence (P23415 29-449 isoform P23415-2 Y307A): as the sequence (P23415 29-449 isoform P23415-2 Y307A limits assumed) above
αY27′A β-αWT GlyR, sequence (P48167+P23415 fused with the stated changes): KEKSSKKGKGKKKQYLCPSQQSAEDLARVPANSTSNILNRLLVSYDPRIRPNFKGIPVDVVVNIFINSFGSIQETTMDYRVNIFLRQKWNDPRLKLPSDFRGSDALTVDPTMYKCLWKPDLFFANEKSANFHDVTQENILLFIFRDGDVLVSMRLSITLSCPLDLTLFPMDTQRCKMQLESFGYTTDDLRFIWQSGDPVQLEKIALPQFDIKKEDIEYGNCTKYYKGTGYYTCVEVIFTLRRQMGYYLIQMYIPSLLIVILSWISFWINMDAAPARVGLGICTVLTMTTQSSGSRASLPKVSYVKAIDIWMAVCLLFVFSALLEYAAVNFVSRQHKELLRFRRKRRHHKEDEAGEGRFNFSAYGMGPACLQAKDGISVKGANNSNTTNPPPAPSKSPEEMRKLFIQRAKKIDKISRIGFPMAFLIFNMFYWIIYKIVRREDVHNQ
Experimental: as §1
For the β-α chimeras used for determining the effect of hyperekplexia-mimicking mutations on α1 β GlyR channel function, the Thr at the M2 6′ position was replaced by a Cys. […] Through such a modification, picrotoxin resistance was used to distinguish the heteromeric α1 β-α GlyR from the homomeric α1 GlyR when the α1 and β-α subunits were co-expressed.
The effects of the hyperekplexia-mimicking mutations, K24′A, V25′A and Y27′A, were examined on GlyRs expressed in HEK293 cells (ATCC). Details of the HEK293 cell culture, GlyR expression and electrophysiological recording of the HEK293 cells are described elsewhere. Briefly, HEK293 cells were maintained in DMEM supplemented with 10% fetal bovine serum. Cells were transfected using a calcium phosphate precipitation protocol. […]
as §3

[3] = Hill coefficient of glycine-induced current

NCC(=O)O [glycine]
current upon application of glycine [1]: neither chimera, when transfected alone into HEK293 cells, induced any current | nH (αY27′A βWT GlyR; [3]): 1.1±0.0 | Imax (αY27′A βWT GlyR; glycine-induced current): 2.0±1.0 nA | nH (αY27′A α-βWT GlyR; [3]): 0.78±0.03 | Imax (αY27′A α-βWT GlyR; glycine-induced current): 5.7±1.3 nA | Current Imax (αWT β19′C GlyR): 2.46±0.19 µA | Current nH (αWT β19′C GlyR): 2.73±0.38 | Fluorescence Fmax (αWT β19′C GlyR): 7.58±0.84% | Fluorescence nH (αWT β19′C GlyR): 1.47±0.12 | Current Imax (αWT α-β19′C GlyR): 1.53±0.09 µA | Current nH (αWT α-β19′C GlyR): 2.36±0.32 | Fluorescence Fmax (αWT α-β19′C GlyR): 6.58±1.17% | Fluorescence nH (αWT α-β19′C GlyR): 2.10±0.13 | Current Imax (αWT αT-β19′C GlyR): 2.19±0.20 µA | Current nH (αWT αT-β19′C GlyR): 1.45±0.06 | Fluorescence Fmax (αWT αT-β19′C GlyR): 11.5±0.6% | Fluorescence nH (αWT αT-β19′C GlyR): 2.31±0.06 | Current Imax (αWT αB-β19′C GlyR): 2.57±0.14 µA | Current nH (αWT αB-β19′C GlyR): 2.11±0.11 | Fluorescence Fmax (αWT αB-β19′C GlyR): 8.52±1.07% | Fluorescence nH (αWT αB-β19′C GlyR): 1.19±0.12 | Current Imax (αWT β-α19′C GlyR): 3.19±0.08 µA | Current nH (αWT β-α19′C GlyR): 2.26±0.11 | Fluorescence Fmax (αWT β-α19′C GlyR): 3.86±0.37% | Fluorescence nH (αWT β-α19′C GlyR): 1.15±0.05 | Current Imax (α19′C βWT GlyR): 3.51±0.24 µA | Current nH (α19′C βWT GlyR): 1.20±0.16 | Fluorescence Fmax (α19′C βWT GlyR): 9.42±0.53% | Fluorescence nH (α19′C βWT GlyR): 0.97±0.04 | glycine-induced current and fluorescence changes [2]: neither glycine-induced current nor fluorescence changes could be detected | nH (αY27′A β-αWT GlyR; [3]): 1.0±0.1 | Imax (αY27′A β-αWT GlyR; glycine-induced current): 1.3±0.3 nA
